Measurements taken from patent US20210113696A1, “IONIC LIQUID COMPOSITIONS FOR TREATMENT OF ROSACEA” (CAGE BIO INC., priority 2018, published 2021).
Blank lines part the entries; values can stand above or below the molecule they belong to.

How the values were obtained:
[1] = Visual observation of appearance (solubility, miscibility) in solvents, solvent blends and gel bases; assay type: physicochemical
Procedure: Conductivity in mixtures of a solvent in combination with choline and geranic acid were done separately.
(§1) Propylene glycol: Samples were made by first starting with 5 grams of each raw material; geranic acid first then repeated with choline (bicarbonate). In summary 1-3 grams of propylene glycol was added to the raw material being tested and mixed. A visual observation was made along with a conductivity measurement.
as §1, with “Ethanol:” for “Propylene glycol:”
as §1, with “Diisopropyl adipate:” for “Propylene glycol:”, “summary,” for “summary”
(§2) The solvents investigated included: water, propylene glycol, glycerin, PEG400, ethanol, diisopropyl adipate, mineral oil, propylene glycol/ethanol/water, and glycerin/PEGG400/water. […] Observations were taken at each concentration. Conductivity measurements were taken at each titrated point for information only at this stage. Scales on subsequent graphs are appropriate for each solvent's values.
No conductivity measurements were taken.
(§3) A visual observation was made along with a conductivity measurement. The process was continued until ˜25 grams of product was reached. The resulting product was stored for later evaluation.
as §3, §3, §3, §3, §3
1-3 grams of water was added and mixed. A visual observation was made along with a conductivity measurement. The process was continued until ˜16 grams of product was reached. The resulting product was stored for later evaluation.
1-3 grams of water was added and mixed. A visual observation was made along with a conductivity measurement. The process was continued until ˜20 grams of product was reached. The resulting product was stored for later evaluation. […]
A similar experiment with the propylene glycol formulation was performed. The results are shown in Table 23, Table 24, and FIG. 28.
(§4) The conductivity is shown in FIG. 32 and the appearance is described in Table 28.

[2] = Conductivity measurement in solvents, solvent blends and gel bases; assay type: physicochemical
Procedure: Conductivity in mixtures of a solvent in combination with choline and geranic acid were done separately. […]
as §1, with “Ethanol:” for “Propylene glycol:”, “measurement. […]” for “measurement.”
as §2, §3, §3, §3, §3, §3
A visual observation was made along with a conductivity measurement. The process was continued until ˜25 grams of product was reached. The resulting product was stored for later evaluation. […]
as §4

[3] = 19% geranic acid, 81% ethanol 200 proof
[4] = 20% geranic acid, 80% ethanol 200 proof
[5] = 22% geranic acid, 78% ethanol 200 proof
[6] = 24% geranic acid, 76% ethanol 200 proof
[7] = 26% geranic acid, 74% ethanol 200 proof
[8] = 29% geranic acid, 71% ethanol 200 proof
[9] = 33% geranic acid, 67% ethanol 200 proof
[10] = 36% geranic acid, 64% propylene glycol
[11] = 38% geranic acid, 62% ethanol 200 proof
[12] = 45% geranic acid, 55% ethanol 200 proof
[13] = 56% geranic acid, 44% ethanol 200 proof
[14] = 56% geranic acid, 44% propylene glycol
[15] = 71% geranic acid, 29% ethanol 200 proof
[16] = 71% geranic acid, 29% propylene glycol
[17] = 71.43% geranic acid, 28.57% diisopropyl adipate
[18] = 83% geranic acid, 17% ethanol 200 proof
[19] = 83% geranic acid, 17% propylene glycol
[20] = 83.33% geranic acid, 16.67% diisopropyl adipate
[21] = 100.00% geranic acid, 0.00% diisopropyl adipate
[22] = 100% geranic acid, 0% ethanol 200 proof
[23] = 100% geranic acid, 0% propylene glycol

- miscibility with diisopropyl adipate [1]: not miscible
Compound: C[N+](C)(C)CCO [Choline Bicarbonate, choline bicarbonate]

- Conductivity [2, 3]: 0.00064 mS/cm
- Conductivity [2, 4]: 0.00064 mS/cm
- Conductivity [2, 5]: 0.00066 mS/cm
- Conductivity [2, 6]: 0.00068 mS/cm
- Conductivity [2, 7]: 0.00072 mS/cm
- Conductivity [2, 8]: 0.00074 mS/cm
- Conductivity [2, 9]: 0.00083 mS/cm
- Conductivity [2, 10]: 0.00009 mS/cm
- Conductivity [2, 11]: 0.00061 mS/cm
- Conductivity [2, 12]: 0.00048 mS/cm
- Conductivity [2, 13]: 0.00022 mS/cm
- Conductivity [2, 14]: 0.00008 mS/cm
- Conductivity [2, 15]: 0.00003 mS/cm
- Conductivity [2, 16]: 0.00008 mS/cm
- Conductivity [2, 17]: 0 mS/cm
- Conductivity [2, 18]: 0.00001 mS/cm
- Conductivity [2, 19]: 0.00000 mS/cm
- Conductivity [2, 20]: 0 mS/cm
- Conductivity [2, 21]: 0 mS/cm
- Conductivity [2, 22]: 0.00000 mS/cm
- Conductivity [2, 23]: 0.00000 mS/cm
- contribution to the overall conductivity ([2]; mixtures with solvent): effectively zero
- Appearance [1, 3]: Clear solution
- Appearance [1, 4]: Clear solution
- Appearance [1, 5]: Clear solution
- Appearance [1, 6]: Clear solution
- Appearance [1, 7]: Clear solution
- Appearance [1, 8]: Clear solution
- Appearance [1, 9]: Clear solution
- Appearance [1, 10]: Clear solution
- Appearance [1, 11]: Clear solution
- Appearance [1, 12]: Clear solution
- Appearance [1, 13]: Clear solution
- Appearance [1, 14]: Clear solution
- Appearance [1, 15]: Clear solution
- Appearance [1, 16]: Clear solution
- Appearance [1, 17]: Clear solution
- Appearance [1, 18]: Clear solution
- Appearance [1, 19]: Clear solution
- Appearance [1, 20]: Clear solution
- Appearance [1, 21]: Clear solution
- Appearance [1, 22]: Clear solution
- Appearance [1, 23]: Clear solution
Compound: CC(C)=CCC/C(C)=C/C(=O)O [Geranic Acid, 3,7-dimethyl-2,6-octadienoic acid]
